Where “and” joins values, the source holds several entries; their conditions need not be identical. Equal values may be shown once.

This is an account of results in publication PMC5052702 (Nature Communications, 2016).

The first assay deals with T1, CVB3 3C protease (Coxsackievirus B3, UniProt P03313).
T1 construct: 3C protease of Coxsackie virus B3 consisting of 183 amino-acid residues; made in house; host or cells: E. coli BL21(DE3), plasmid pET-23a(+)
T1 sequence (P03313 1541-1723): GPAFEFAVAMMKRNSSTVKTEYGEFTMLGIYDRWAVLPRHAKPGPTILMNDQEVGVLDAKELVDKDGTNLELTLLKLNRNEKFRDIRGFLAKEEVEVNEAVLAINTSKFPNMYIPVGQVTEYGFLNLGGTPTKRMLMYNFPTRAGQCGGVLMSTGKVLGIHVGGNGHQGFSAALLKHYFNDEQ
In words: FRET-based enzyme activity assay (warhead activation / inhibitor kinetics). It counts as biochemical, Coxsackie virus B3.
Conditions: not given
The method, then:
The activity of the protease was measured by hydrolysis of the FRET-substrate N-Dabcyl-KTLEALFQ↓GPPVYE(Edans)-NH2. The peptide was purchased from Biosyntan (Berlin, Germany). Samples were irradiated with light with a wavelength of 355 nm and the emitted light at 538 nm was measured in relative fluorescence units (RFUs). An amount of 100 pmol of cleaved substrate equals 5,000 RFU.
Assay samples contained 10 μl of a 100 mM HEPES-NaOH buffer solution pH 7.5/1 mM EDTA, 10 μl enzyme solution (2 μM CVB3 3C^Pro), 10 μl of 10 μM substrate solution (both dissolved in the above buffer) and 1 μl Inhibitor and/or fragment dissolved in DMSO. For assay results of a dilution series of a mixture of 1 and 2 and comparison of reaction products in dependence of the assay solvent, see Supplementary Figs 1 and 2.
The screening procedure consisted of the following steps: 10 μl 100 mM HEPES-NaOH buffer solution pH 7.5/1 mM EDTA was placed in a cavity of the 384-well plate (polystyrene, Corning 3544). Then 10 μl of enzyme solution (40 μM CVB3 3C protease in 100 mM HEPES-NaOH buffer solution, pH 7.5/1 mM EDTA) was added and the plate was shaken for 2 min at 1,400 r.p.m. Afterwards, 0.5 μl of a DMSO solution of the electrophilic probe and 0.5 μl of a DMSO solution of the nucleophile was added, followed by 10 μl of substrate solution (10 μM in 100 mM HEPES-NaOH buffer solution, pH 7.5/1 mM EDTA). The plate was shaken again for 2 min at 1,400 r.p.m. and the generated fluorescence signal was measured with a Safire II Fluorimeter from Tecan. The electrophilic probe 1 was used at a concentration of 400 μM for the screening, which lowered the protease activity by 10–20%. Eight-hundred fifty primary amines were tested at a concentration of 320 μM and fragment 2 amplified the inhibitory activity of 1 most potently. Positive control samples contained only DMSO instead of the probe or the nucleophile. Negative control samples contained no active enzyme. An interfering fluorescent effect has not been observed.
When determining the inhibitory parameters of an inhibitor, the assay set-up was as mentioned but 1 μl DMSO solution of inhibitor was used instead of probe or nucleophile. Different concentrations of inhibitor were tested at least as duplicates and the pseudo-first-order association kinetics (kobs) were determined using GraphPad Prism. The slope of a plot of the different kobs values against the inhibitor concentration yielded kinact/KI.
Turning to `Nc1cc(=O)[nH]n1C1CCCCCC1` [Compound 2, 5-amino-1-cycloheptyl-1,2-dihydropyrazol-3-one], the “inhibition of the protease, in words” value was “virtually inactive”.
Still for that read-out and setting: as for `CCOC(=O)[C@H]1O[C@@H]1C(=O)Nc1cc(=O)[nH]n1C1CCCCCC1` [Compound 4], the entry is “reversible inhibitor”; as for `CCOC(=O)[C@H]1O[C@H]1C(=O)Nc1cc(=O)[nH]n1C1CCCCCC1` [Compound 5], “inactive”; as for `O=C(NCc1cccc2ccccc12)[C@H]1O[C@@H]1C(=O)Nc1cc(=O)[nH]n1C1CCCCCC1` [Compound 6], “inactive”.
The same measure, in the same setting: as for `CCOC(=O)/C=C/C(=O)Nc1cc(=O)[nH]n1C1CCCCCC1` [Compound 9], the entry is “inactive”; as for `CCNC(=O)/C=C\C(=O)NCC` [Compound 15], “fully inactive”.

The same assay, now with this note: fragments alone or combined at the same concentrations, ligation assay.
On to `Nc1cc(=O)[nH]n1C1CCCCCC1` [Compound 2, 5-amino-1-cycloheptyl-1,2-dihydropyrazol-3-one], for which the “reduction of the enzyme's activity (inhibition)” value was “no more than 10%”.

Still in this assay, the particulars now being: read-out: IC50.
Take `CCOC(=O)[C@H]1O[C@@H]1C(=O)Nc1cc(=O)[nH]n1C1CCCCCC1` [Compound 4]: the IC50 was 142 ± 5.6 µM.
On the same count and under the same terms, as for `CCOC(=O)/C=C/C(=O)Oc1cc(N)n(C2CCCCCC2)n1` [Compound 11], the figure is 20.2 ± 1.6 µM.

The same assay, now with this note: relative inactivation rate; slope of kobs against inhibitor concentration.
As for `CCOC(=O)/C=C/Cc1c(N)n(C2CCCCCC2)[nH]c1=O` [Compound 7], the kinact/KI was 0.4 M⁻¹ s⁻¹ and 0.42 ± 0.01 M⁻¹ s⁻¹.
Still for that read-out and setting: as for `CCOC(=O)/C=C/C(=O)c1c(N)n(C2CCCCCC2)[nH]c1=O` [Compound 8], the figure is 132 M⁻¹ s⁻¹ and 131.7 ± 4.2 M⁻¹ s⁻¹; as for `CCOC(=O)/C=C\C(N)=O` [Compound 13], 34 M⁻¹ s⁻¹ and 34.7 ± 1.5 M⁻¹ s⁻¹.

Still in this assay, the particulars now being: relative inactivation rate; slope of kobs against inhibitor concentration; read-out: kinact/KI.
For the compound `CCOC(=O)[C@H]1O[C@@H]1Cc1c(N)n(C2CCCCCC2)[nH]c1=O` [Compound 3], the kinact/KI came out at 3.7 ± 0.2 M⁻¹ s⁻¹.
On the same count and under the same terms, as for `CCOC(=O)/C=C/C(=O)c1c(N)n(-c2ccccc2)[nH]c1=O` [Compound 10], the figure is 14.7 ± 0.9 M⁻¹ s⁻¹; as for `CCCC(CCC)n1[nH]c(=O)cc1NC(=O)/C=C\C(=O)OCC` [Compound 17], 217 ± 30.7 M⁻¹ s⁻¹; as for `CCOC(=O)/C=C\C(=O)Nc1cc(=O)[nH][nH]1` [Compound 18], 11.7 ± 0.5 M⁻¹ s⁻¹.
`CC(C)n1[nH]c(=O)cc1NC(=O)/C=C/S(=O)(=O)c1ccccc1` [Compound 21]: the kinact/KI is 542 ± 6.3 M⁻¹ s⁻¹.
